Measured values reported in patent US12173349B2, “Lung protease nanosensors and uses thereof” (Massachusetts Institute of Technology, priority 2018, dated 2024).
Entries after “also recorded” stand apart in the source; their conditions may differ. *1 amine or outer side, *2 acyl side, *3 side chain or, on linkers, in order; H or OH if unused. Where no end group is shown, it is not given here. [ ]: non-standard residue; d: D form. ξ: configuration not given here. +10F = isotope-labelled Phe, +10, O=[13C]([13C@H]([13CH2][13c]1[13cH][13cH][13cH][13cH][13cH]1)[15NH][*:1])[*:2]; ξβ3hPhg(2-NO2) = O=C(CC(N[*:1])c1ccccc1[N+](=O)[O-])[*:2]; FAM = carboxyfluorescein fluorophore label; AF488 = Alexa Fluor 488 fluorophore label; +1A = isotope-labelled Ala, +1; +1F = isotope-labelled Phe, +1; +2G = isotope-labelled Gly, +2; +4A = isotope-labelled Ala, +4; F+10 = not defined here; A+4 = not defined here; G+2 = not defined here; G+3 = not defined here

Columns and labels:
[1] = tested on: P. aeruginosa strain PA01 lung infection; test: urinary reporter ELISA after intravenous ABNs in bacterial pneumonia model; format: in vivo, mice; details: for urine signal in ciprofloxacin-treated versus doxycycline-treated mice / urine signal relative to healthy controls: 24 hours post-infection; for urine signal after ciprofloxacin treatment above baseline: 7 days post-infection, 4 days of ciprofloxacin; for increase in urinary reporter after initiation of infection relative to pre-infection: ABNs injected intravenously 24 hours post infection, urine at 1 hour; for ROC AUC, infected from healthy mice: FIG. 11D, n=9 mice; for ROC AUC, ciprofloxacin treated from pre-treatment signal (Treatment): FIG. 12, 7 days post-infection; for ROC AUC, infected from healthy (Infection): FIG. 12, administered prior to drug treatment; for ROC AUC, effective versus ineffective treatment (doxycycline-treated vs ciprofloxacin-treated): treatment started 5 hours post-infection, ABNs 24 hours post-infection
Excerpt: Peptide substrates were coupled to 40 kDa 8-arm PEG-MAL via terminal cysteines on each peptide to generate ABNs for use in vivo (Dudani et al., Adv Funct Mater, 26, 2919, 2016; Kwong et al., Proc Natl Acad Sci, 112, 12627, 2015). Each substrate is barcoded with an independent ligand and a biotin on a stable urinary peptide reporter that can be measured by a sandwich ELISA after proteolysis of the substrate, release of the reporter, and clearance into the urine (Warren et al., Proc Natl Acad Sci USA, 111, 3671, 2014; Lin et al., ACS Nano, 0) (FIGS. 11A and 16). The selection of a pair of distinct, ligand-encoded reporters enables simultaneous, multiplexed administration of the two nanosensors. Following initiation of the infection, ABNs were injected intravenously after 24 hours and collected urine an hour after the administration of the nanosensors.
To evaluate whether the presently disclosed ABNs could be used to monitor clearance of infection, PA01 was instilled intratracheally into mice, the pair of ABNs was administered the following day to confirm and set a baseline for infection in each individual, and then antibiotic treatment was initiated with ciprofloxacin, a commonly used broad spectrum antibiotic with activity against gram-negative bacteria, including PA01 (Zeiler et al., Ciprofloxacin, 14, 1986). The diagnostic ABN injection and urine collection was repeated 7 days post-infection (with an interceding 4 days of drug treatment) to determine whether the substrates could monitor recovery from infection following effective antibiotic treatment (FIG. 12A). After ciprofloxacin treatment, LAS urine signal returned to baseline, though ELA remained elevated (1.2-fold and 2.2-fold above baseline, respectively; […]).
Individual responses to antimicrobial treatment can be highly variable, dependent upon the strain of pathogen and the presence of antibiotic resistance, and current clinical tests take 24-72 hours to identify antibiotic susceptibility (Caliendo et al., Clin Infect Dis, 57, S139, 2013). In addition, current clinical tests used to visualize lung infections (e.g., chest X-ray and computed tomography) are often unable to distinguish active infections from those that have been adequately treated until several weeks after antibiotic therapy is complete, because the airspace opacifications characteristic of pneumonia remain apparent on routine radiography screens (Bruns et al., J Gen Intern Med, 25, 203, 2010). Therefore, the ability of the infection-tracking ABNs to identify successful versus insufficient treatment on an acute time-scale shortly after therapeutic initiation was sought to be evaluated. Only 5 hours after establishing lung infections with PA01, antibiotic treatment was initiated with either ciprofloxacin (efficacious against P. aeruginosa) or doxycycline (ineffective against gram-negative bacteria including P. aeruginosa) (FIG. 13A). The following day, multiplexed LAS-E and ELA-E ABNs were administered and urine was collected. […] The persistent Pseudomonas immunostaining observed following ciprofloxacin treatment might be derived from residual Pseudomonas antigens remaining from lysed bacteria that had not yet been cleared by the immune system. Alternatively, the reduced LAS sensor reading in these treated mice could reflect a suppression of LasA secretion from bacteria as they are killed by the potent antibiotic.
All animal studies were approved by Massachusetts Institute of Technology's Committee on Animal Care. For infection studies, 5-7 week old female CD-1 mice were innoculated intratracheally with 1.25×10^6 CFU of P. aeruginosa strain PA01 in 50 μL of PBS. Bacteria were cultured overnight in LB broth, then subcultured and grown to log phase (OD600≈0.5). Bacteria were pelleted, washed with sterile PBS, and then resuspended to the requisite concentration for intratracheal administration. Mice were administered buprenorphine and meloxicam several hours after infection. […]

[2] = tested on: 15 proteases in the LUAD protease panel; test: in vitro recombinant protease screen of FRET-paired substrates; format: biochemical; details: fluorescence fold change at 45 minutes; 1 μM substrate, 12.5 nM recombinant enzyme; MP metallo-, SP serine, AP aspartic protease
Excerpt: Hundreds of peptide sequences have been previously designed and validated as protease substrates, leveraging known catalytic specificities of different protease families, published datasets and substrate sequences in databases like cutDB and MEROPS (Igarashi et al., Nucleic Acids Res 35, D546-549, 2007; Rawlings et al., Nucleic Acids Res 46, D624-D632, 2018). Fourteen of these substrates were nominated in an effort to cover the specificity profiles of metallo-, serine and aspartic endoproteases, all of which were included in the LUAD protease panel, and the catalytic activity of each protease-substrate pair was characterized. Quenched probes that incorporated the 14 peptide substrates were synthesized such that they fluoresce upon proteolytic cleavage to enable real-time monitoring of protease activity in vitro (FIG. 3A and Table 2). Each probe was incubated with each protease in the panel and fluorescence was monitored over 45 minutes. Shown are sample kinetic plots monitoring dequenching of the 14 FRET-paired probes when incubated with (above) and without (below) recombinant matrix metalloproteinase 3 (MMP3) (FIG. 3B). […] See also FIG. 19.
Fluorogenic protease substrates were synthesized by CPC Scientific. Recombinant proteases were purchased from Enzo Life Sciences, R&D Systems and Haematologic Technologies. For recombinant protease assays, fluorogenic substrates PPQ1-14 (1 μM final concentration) were incubated in 30 μL final volume in appropriate enzyme buffer, according to manufacturer specifications, with 12.5 nM recombinant enzyme at 37° C. (FIG. 3). Proteolytic cleavage of substrates was quantified by increases in fluorescence over time by fluorimeter (Tecan Infinite M200 Pro). Enzyme cleavage rates were quantified as relative fluorescence increase over time normalized to fluorescence before addition of protease. Hierarchical clustering was performed in GENE-E, using fluorescence fold changes at 45 minutes.

[3] = tested on: Kras and p53 mutant lung adenocarcinoma (KP mice); test: urinary ABN readout and random forest classification in KP lung adenocarcinoma model; format: in vivo; details: KP10.5 wk urine
Description: To characterize ABN performance in vivo, 14 protease-sensitive ABNs were administered to KP mice and healthy, age and sex-matched controls at 5, 7.5 and 10.5 weeks after tumor initiation. Mouse bladders were voided one hour after intrapulmonary delivery and all fresh urine produced during the subsequent hour (from 60-120 minutes after administration) was pooled and collected. LC-MS/MS was performed and peak area ratios (defined as peak area of urinary reporter divided by peak area of spiked-in internal standard) of protease-sensitive reporters were mean-normalized within each sample to reduce mouse-to-mouse variation.
A random forest classifier was then sought to be built to enable prospective diagnosis of lung cancer in KP mice. Random forest is a high-performance classifier, applicable to a wide variety of classification tasks, that generates a collection of decision trees (a “forest”) that are sampled to produce classification results (Breiman, Machine Learning 45, 5-32, 2001). A random forest classifier was trained using 50% of control mice at 5 weeks, 7.5 weeks and 10.5 weeks, as well as 50% of KP mice at 7.5 weeks (FIG. 6A). The classifier assigned a probability that each mouse belonged to either the KP cohort or the healthy control cohort (FIG. 6B, “Training” panel), achieving perfect separation of control and KP mice. The classifier was then sought to be tested on an independent validation cohort consisting of classifier-naive KP mice at 5 weeks, 7.5 weeks and 10.5 weeks post-induction, as well as the remaining control mice from each time point.
Male B6/SV129 Kras^LSL-G12D/+; Trp53^fl/fl (KP) mice between 18 and 30 weeks old were used for lung adenocarcinoma experiments. Tumors were initiated, as described previously (DuPage et al., Nat Protoc 4, 1064-1072 (2009)), by the intratracheal administration of 50 μL of adenovirus-SPC-Cre (2.5×10^8 PFU in Opti-MEM with 10 mM CaCl2)) under isoflurane anesthesia. […] Tumor growth was monitored by micro computed tomography (microCT) imaging (General Electric) and was scored by a blinded radiation oncologist using MicroView (Parallax Innovations) (Table 4). Tumor volumes were calculated by using the ROI sphere/elliptical tool.
ABN constructs (GluFib-Substrate-PEG-840 kDa) for urinary experiments were synthesized by CPC Scientific (Sunnyvale, CA). ABNs were dosed (50 μL total volume, 20 μM concentration per ABN) by intratracheal intubation, as described above. Bladders were voided 60 minutes after ABN administration and all urine produced 60-120 min after ABN administration was collected using custom tubes in which the animals rest upon 96-well plates that capture urine. Urine was pooled and frozen at −80° C. until analysis by LC-MS/MS.
Liquid chromatography/tandem mass spectrometry was performed by Syneos Health (Princeton, NJ) using a Sciex 6500 triple quadrupole instrument. Briefly, urine samples were treated with UV irradiation to photocleave the ANP linker and liberate the Glu-Fib reporter from residual peptide fragments. Samples were extracted by solid-phase extraction and analyzed by multiple reaction monitoring by LC-MS/MS to quantify concentration of each Glu-Fib mass variant. Analyte quantities were normalized to a spiked-in internal standard and concentrations were calculated from a standard curve using peak area ratio (PAR) to the internal standard. Mean normalization was performed on PAR values to account for mouse-to-mouse differences in ABN inhalation efficiency and urine concentration.
Principal component analysis (PCA) was performed on mean normalized PAR values in the R statistical environment (Team, R.C. R, R Foundation for Statistical Computing, Vienna, Austria, 2017) using the prcomp function. Binary classification was performed using the Caret package (Kuhn, M. caret: Classification and Regression Training. (2017)) in the R statistical environment). […]

Substance	urine signal in ciprofloxacin-treated versus doxycycline-treated mice [1]	urine signal after ciprofloxacin treatment above baseline [1] [fold]	increase in urinary reporter after initiation of infection relative to pre-infection [1] [fold]	ROC AUC, infected from healthy mice [1]	ROC AUC, ciprofloxacin treated from pre-treatment signal (Treatment) [1]	ROC AUC, infected from healthy (Infection) [1]	urine signal relative to healthy controls ([1]; ciprofloxacin-treated mice)	urine signal relative to healthy controls ([1]; doxycycline-treated mice)	ROC AUC, effective versus ineffective treatment (doxycycline-treated vs ciprofloxacin-treated) [1]	protease class(es) cleaving the substrate in vitro [2]	urinary reporter enrichment relative to healthy controls [3]
ELA-E: elastase substrate with FAM ligand-encoded reporter and biotin (SEQ ID NO: 48), coupled to 40 kDa 8-arm PEG-MAL ([dE]G[dV][dN][dD][dN][dE][dE]G[dF][dF][dS][dA][dR]K(FAM)GGAAFAGC; also: biotin, site not given here, coupled to 40 kDa 8-arm PEG-MAL, site not given here)	not significantly different	2.2	2.6	1.00	0.72	1.00	robustly elevated	robustly elevated	0.536		
PP04: ABN: reporter e(+2G)Vndnee(+2G)FFs(+4A)r, ANP, substrate PLGLRSW, nanocarrier PEG8-40 kDa (chain 1 [dE][+2G]V[dN][dD][dN][dE][dE][+2G]FF[dS][+4A][dR][ξβ3hPhg(2-NO2)]; also: ANP photolabile linker joins reporter and substrate, sites not given here, PEG8-40 kDa nanocarrier, site not given here)										SP/MP	
LAS-E: LasA substrate with AF488 ligand-encoded reporter and biotin (SEQ ID NO: 46), coupled to 40 kDa 8-arm PEG-MAL ([dE]G[dV][dN][dD][dN][dE][dE]G[dF][dF][dS][dA][dR]K(AF488)GGLGGGAGC; also: biotin, site not given here, coupled to 40 kDa 8-arm PEG-MAL, site not given here)	significantly lower	1.2	1.8	0.86	0.88	0.92		elevated	0.893		
PP11: ABN: reporter e(+3G)(+1V)ndnee(+2G)(+10F)Fs(+4A)r, ANP, substrate SGSKIIGGG, nanocarrier PEG8-40 kDa (chain 1 [dE][G+3][V+1][dN][dD][dN][dE][dE][G+2][F+10]F[dS][A+4][dR]; reading uncertain; also: ANP photolabile linker, attachment not given here, PEG8-40 kDa nanocarrier, attachment not given here, how reporter and substrate are joined not given here, printed as PP11: ABN: reporter e(+3G)(+1V)ndnee(+2G)(+10F)Fs(+4A)r, ANP, substrate SGSKIIGGG, nanocarrier PEG8-40 kDa)										serine protease-sensitive; also recorded: only by serine proteases	most significantly enriched
PP10: ABN: reporter e(+2G)(+6V)ndneeG(+10F)(+1F)s(+1A)r, ANP, substrate ILSRIVGGG, nanocarrier PEG8-40 kDa (chain 1 [dE][+2G][+6V][dN][dD][dN][dE][dE]G[+10F][+1F][dS][+1A][dR][ξβ3hPhg(2-NO2)]; also: ANP photolabile linker joins reporter and substrate, sites not given here, PEG8-40 kDa nanocarrier, site not given here)										MP/SP/AP	
